Reference: ChEMBL document CHEMBL5579882, “Synthesis and Photodynamic Activities of Pyridine- or Pyridinium-Substituted Aza-BODIPY Photosensitizers” (J Med Chem, 2024)
Blank lines part the entries; values can stand above or below the molecule they belong to. Activity calls are given as the source filed them. The rule behind the calls is not given here.

Assays:
HeLa [1] = experiment: Biodistribution in human HeLa cells xenografted in nude BALB/c nu/nu mouse at 2.5 umol/kg, iv measured for 3 hrs by IVIS analysis; assay type: ADME, organism-based; details: in vivo, dose 2.5 µmol/kg
HeLa [2] = experiment: Induction of cell death in human HeLa cells assessed as increase in bright red signal at 400 nM incubated for 3 hrs followed by light irradiation of 54 J/cm2 in presence of Lip-1 inhibitor by Calcein-AM/PI staining based analysis; assay type: functional
[3] = Drug uptake in endoplasmic reticulum of human HeLa cells at 5 uM incubated for 3 hrs by ER-Tracker Green dye based analysis; assay type: ADME, subcellular
HeLa [4] = experiment: Induction of lipid peroxidation in human HeLa cells assessed as increase in green fluorescence with a light dose of 54 J/cm2 at 100 to 400 nM incubated for 3 hrs by BODIPY 581/591 C11 dye based analysis; assay type: functional, cell-based; details: dose 100-400 nM
HeLa [5] = experiment: Induction of cell death in human HeLa cells under dark condition upto 400 nM incubated for 3 hrs by Calcein-AM/PI staining based analysis; assay type: functional
[6] = Biodistribution in spleen of nude BALB/c nu/nu mouse bearing human HeLa cells at 2.5 umol/kg, iv measured for 3 hrs by IVIS analysis; assay type: ADME, organism-based; details: in vivo, dose 2.5 µmol/kg
HeLa [7] = experiment: Antitumor activity against human HeLa cells xenografted in nude BALB/c nu/nu mouse assessed as decrease in tumor growth at 2.5 umol/kg, iv with light irradiation of 30 J/cm2 for 1 hr measured after 24 hrs; assay type: functional, organism-based; details: dose 2.5 µmol/kg, time 25.0 hrs
HeLa [8] = experiment: Phototoxicity against human HeLa cells assessed as inhibition of cell viability preincubated for 3 hrs followed by photo-irradiation of 54 J/cm2 for 24 hrs by CCK8 assay; assay type: functional, cell-based; details: light or radiation study
HeLa [9] = experiment: Induction of cell death in human HeLa cells assessed as increase in bright red signal at 400 nM incubated for 3 hrs followed by light irradiation of 54 J/cm2 in presence of Fer-1 inhibitor by Calcein-AM/PI staining based analysis; assay type: functional
[10] = Toxicity in nude BALB/c nu/nu mouse bearing human HeLa cells assessed as steady body weight increment at 2.5 umol/kg, iv with light irradiation at 30 J/cm2 for 1 hr measured for 24 hrs; assay type: organism-based; details: in vivo, 25 h, dose 2.5 µmol/kg
HeLa [11] = experiment: Induction of ROS generation in human HeLa cells assessed as increase in green fluorescence incubated for 3 hrs followed by light irradiation of 54 J/cm2 by H2DCFDA staining based analysis; assay type: functional, cell-based; details: dose 25-200 nM
HeLa [12] = experiment: Induction of cell death in human HeLa cells assessed as increase in bright red signal at 400 nM incubated for 3 hrs followed by light irradiation of 54 J/cm2 in presence of DFO inhibitor by Calcein-AM/PI staining based analysis; assay type: functional
[13] = Drug uptake in lipid droplet of human HeLa cells at 5 uM incubated for 3 hrs by BODIPY 493/503 dye based analysis; assay type: ADME, subcellular
[14] = Drug uptake in human HeLa cells assessed as fold increase in fluorescence intensity at 5 uM incubated for 3 hrs by fluorescence imaging based analysis relative to control; assay type: ADME, cell-based
HepG2 = experiment: Phototoxicity against human HepG2 cells assessed as inhibition of cell viability preincubated for 3 hrs followed by photo-irradiation of 54 J/cm2 for 24 hrs by CCK8 assay; assay type: functional, cell-based; details: HepG2, light or radiation study
[15] = Drug uptake in mitochondria of human HeLa cells at 5 uM incubated for 3 hrs by MitoTracker Green FM dye based analysis; assay type: ADME
[16] = Dark cytotoxicity against human HepG2 cells assessed as inhibition of cell viability incubated for 3 hrs by CCK8 assay; assay type: toxicity, cell-based
[17] = Toxicity in nude BALB/c nu/nu mouse bearing human HeLa cells assessed as pathological change in heart at 2.5 umol/kg, iv with light irradiation of 30 J/cm2 for 1 hr measured for 24 hrs by H and E staining based analysis; assay type: organism-based; details: in vivo, 25 h, dose 2.5 µmol/kg
[18] = Toxicity in nude BALB/c nu/nu mouse bearing human HeLa cells assessed as pathological change in spleen at 2.5 umol/kg, iv with light irradiation of 30 J/cm2 for 1 hr measured for 24 hrs by H and E staining based analysis; assay type: organism-based; details: in vivo, 25 h, dose 2.5 µmol/kg
HeLa [19] = experiment: Induction of ROS generation in human HeLa cells without light irradiation at 200 nM incubated for 3 hrs by H2DCFDA staining based analysis; assay type: functional, cell-based
[20] = Biodistribution in lung of nude BALB/c nu/nu mouse bearing human HeLa cells at 2.5 umol/kg, iv measured for 3 hrs by IVIS analysis; assay type: ADME, organism-based; details: in vivo, dose 2.5 µmol/kg
[21] = Toxicity in nude BALB/c nu/nu mouse bearing human HeLa cells assessed as pathological change in liver at 2.5 umol/kg, iv with light irradiation of 30 J/cm2 for 1 hr measured for 24 hrs by H and E staining based analysis; assay type: organism-based; details: in vivo, 25 h, dose 2.5 µmol/kg
HeLa [22] = experiment: Antitumor activity against human HeLa cells xenografted in nude BALB/c nu/nu mouse assessed as pathological damage in tumor at 2.5 umol/kg, iv with light irradiation of 30 J/cm2 for 1 hr measured after 24 hrs by H and E staining based analysis; assay type: functional, organism-based; details: dose 2.5 µmol/kg, time 25.0 hrs
[23] = Dark cytotoxicity against human HeLa cells assessed as inhibition of cell viability incubated for 3 hrs by CCK8 assay; assay type: toxicity, cell-based
[24] = Biodistribution in skin of nude BALB/c nu/nu mouse bearing human HeLa cells at 2.5 umol/kg, iv measured for 3 hrs by IVIS analysis; assay type: ADME, organism-based, Skin of body; details: in vivo, dose 2.5 µmol/kg
[25] = Biodistribution in liver of nude BALB/c nu/nu mouse bearing human HeLa cells at 2.5 umol/kg, iv measured for 3 hrs by IVIS analysis; assay type: ADME, organism-based; details: in vivo, dose 2.5 µmol/kg
[26] = Toxicity in nude BALB/c nu/nu mouse bearing human HeLa cells assessed as pathological change in lung at 2.5 umol/kg, iv with light irradiation of 30 J/cm2 for 1 hr measured for 24 hrs by H and E staining based analysis; assay type: organism-based; details: in vivo, 25 h, dose 2.5 µmol/kg
[27] = Toxicity in nude BALB/c nu/nu mouse bearing human HeLa cells assessed as drug tolerance at 2.5 umol/kg, iv with light irradiation of 30 J/cm2 for 1 hr measured for 24 hrs; assay type: organism-based; details: in vivo, 25 h, dose 2.5 µmol/kg
[28] = Drug uptake in lysosome of human HeLa cells at 5 uM incubated for 3 hrs by LysoTracker Green DND-26 dye based analysis; assay type: ADME, subcellular
HeLa [29] = experiment: Induction of cell death in human HeLa cells assessed as increase in bright red signal at 400 nM incubated for 3 hrs followed by light irradiation of 54 J/cm2 by Calcein-AM/PI staining based analysis; assay type: functional
[30] = Biodistribution in kidney of nude BALB/c nu/nu mouse bearing human HeLa cells at 2.5 umol/kg, iv measured for 3 hrs by IVIS analysis; assay type: ADME, organism-based; details: in vivo, dose 2.5 µmol/kg
[31] = Toxicity in nude BALB/c nu/nu mouse bearing human HeLa cells assessed as pathological change in kidney at 2.5 umol/kg, iv with light irradiation of 30 J/cm2 for 1 hr measured for 24 hrs by H and E staining based analysis; assay type: organism-based; details: in vivo, 25 h, dose 2.5 µmol/kg
[32] = Drug uptake in human HeLa cells assessed as increase in red fluorescence signal at 5 uM incubated for 3 hrs by fluorescence imaging based analysis; assay type: ADME, cell-based

- Drug uptake (HeLa [1]): Active
- Drug uptake [3]: Not Active
- Drug uptake [6]: Active
- Drug uptake [13]: Active
- fold change (FC) [14]: 6
- Drug uptake [15]: Not Active
- Drug uptake [20]: Active
- Drug uptake [24]: Not Active
- Drug uptake [25]: Active
- Drug uptake [28]: Not Active
- Drug uptake [30]: Active
Compound: COc1ccc(-c2c(I)c(-c3cccnc3)c3n2[B-](F)(F)[N+]2=C4C(=C(c5ccccc5)C2=N3)CCc2cc(OC)ccc24)cc1
- Activity (HeLa [2]): inactive
- Activity (HeLa [4]): Active
- Activity (HeLa [5]): inactive
- Activity (HeLa [7]): Active
- IC50 (HeLa [8]): 10.4 nM
- Activity (HeLa [9]): inactive
- Activity [10]: Non-Toxic
- Activity (HeLa [11]): Dose-Dependent Effect
- Activity (HeLa [12]): Active
- IC50 (HepG2): 6.9 nM
- IC50 at 3 h [16]: > 50 µM
- Activity [17]: Non-Toxic
- Activity [18]: Non-Toxic
- Activity (HeLa [19]): inactive
- Activity [21]: Non-Toxic
- Activity (HeLa [22]): Active
- IC50 at 3 h [23]: > 50 µM
- Activity [26]: Non-Toxic
- Activity [27]: Non-Toxic
- Activity (HeLa [29]): Active
- Activity [31]: Non-Toxic

Compound: C=Cc1c(C)c2cc3nc(c(CC(=O)O)c4[nH]c(cc5nc(cc1[nH]2)C(C)=C5CC)c(C)c4C(=O)O)[C@@H](CCC(=O)O)[C@@H]3C [CHLORIN E6]
- Activity (HeLa [7]): inactive
- IC50 at 3 h [16]: > 50 µM
- IC50 at 3 h [23]: > 50 µM

Compound: COc1ccc(C2=[N+]3C(=Nc4c(-c5ccc[n+](C)c5)c5c(n4[B-]3(F)F)-c3ccc(OC)cc3CC5)C(c3ccccc3)=C2I)cc1
- IC50 (HeLa [8]): 41.8 nM
- IC50 at 3 h [23]: 2.3 µM

Compound: COc1ccc(C2=[N+]3C(=Nc4c(-c5cccnc5)c(I)c(-c5ccc(OC)cc5)n4[B-]3(F)F)C(c3ccccc3)=C2)cc1
- IC50 (HeLa [8]): 42.9 nM
- IC50 at 3 h [23]: 17.1 µM

Compound: COc1ccc(-c2c(I)c(-c3ccncc3)c3n2[B-](F)(F)[N+]2=C4C(=C(c5ccccc5)C2=N3)CCc2cc(OC)ccc24)cc1
- IC50 (HeLa [8]): 6.1 nM
- IC50 (HepG2): 11.1 nM
- IC50 at 3 h [16]: > 50 µM
- IC50 at 3 h [23]: > 50 µM

Compound: COc1ccc(C2=[N+]3C(=Nc4c(-c5cccnc5)c5c(n4[B-]3(F)F)-c3ccc(OC)cc3CC5)C(c3ccccc3)=C2I)cc1
- IC50 (HeLa [8]): 19.1 nM
- IC50 (HepG2): 7.5 nM
- IC50 at 3 h [16]: > 50 µM
- IC50 at 3 h [23]: 37.4 µM

Compound: COc1ccc(-c2c(I)c(-c3cccc[n+]3C)c3n2[B-](F)(F)[N+]2=C4C(=C(c5ccccc5)C2=N3)CCc2cc(OC)ccc24)cc1
- IC50 (HeLa [8]): 118 nM
- IC50 at 3 h [23]: 6.1 µM

Compound: COc1ccc(-c2c(I)c(-c3ccccn3)c3n2[B-](F)(F)[N+]2=C4C(=C(c5ccccc5)C2=N3)CCc2cc(OC)ccc24)cc1
- IC50 (HeLa [8]): 12.1 nM
- IC50 (HepG2): 7.2 nM
- IC50 at 3 h [16]: > 50 µM
- IC50 at 3 h [23]: 17.9 µM

Compound: COc1ccc(-c2c(I)c(-c3cc[n+](C)cc3)c3n2[B-](F)(F)[N+]2=C4C(=C(c5ccccc5)C2=N3)CCc2cc(OC)ccc24)cc1
- IC50 (HeLa [8]): 129 nM
- IC50 at 3 h [23]: 3.3 µM

Compound: COc1ccc(C2=[N+]3C(=Nc4c(-c5ccc[n+](C)c5)c(I)c(-c5ccc(OC)cc5)n4[B-]3(F)F)C(c3ccccc3)=C2)cc1
- IC50 (HeLa [8]): 214 nM
- IC50 at 3 h [23]: 11.2 µM

- Drug uptake [32]: Active
Compound: COc1ccc(C2=[N+]3C(=Nc4c(-c5ccccc5)c5c(n4[B-]3(F)F)-c3ccc(OC)cc3CC5)C(c3ccccc3)=C2I)cc1
- Activity (HeLa [7]): Active
- IC50 at 3 h [16]: > 50 µM
- IC50 at 3 h [23]: > 50 µM

Compound: COc1ccc(C2=[N+]3C(=Nc4c(-c5ccncc5)c(I)c(-c5ccc(OC)cc5)n4[B-]3(F)F)C(c3ccccc3)=C2)cc1
- IC50 (HeLa [8]): 50.1 nM
- IC50 at 3 h [23]: 20.6 µM

Compound: COc1ccc(C2=[N+]3C(=Nc4c(-c5ccccc5)c(Br)c(-c5ccc(OC)cc5)n4[B-]3(F)F)C(c3ccccc3)=C2Br)cc1
- IC50 (HeLa [8]): 64.2 nM
- IC50 at 3 h [23]: 41.7 µM

Compound: COc1ccc(C2=[N+]3C(=Nc4c(-c5ccncc5)c5c(n4[B-]3(F)F)-c3ccc(OC)cc3CC5)C(c3ccccc3)=C2I)cc1
- IC50 (HeLa [8]): 33.9 nM
- IC50 (HepG2): 35.8 nM
- IC50 at 3 h [16]: > 50 µM
- IC50 at 3 h [23]: 37.2 µM

Compound: COc1ccc(-c2c(I)c(-c3ccc[n+](C)c3)c3n2[B-](F)(F)[N+]2=C4C(=C(c5ccccc5)C2=N3)CCc2cc(OC)ccc24)cc1
- IC50 (HeLa [8]): 6 nM
- IC50 at 3 h [23]: 1.2 µM
